# According to patent US11685714B2, “Prodrugs of cytotoxic active agents having enzymatically cleavable groups” (BAYER PHARMA AKTIENGESELLSCHAFT, priority 2016, dated 2023):
# Assay: Assay for determination of stability in rat liver lysosomes
# Assay type: in vitro ADME
# Conditions: over 24 h, 37° C.
# Method: To determine the lysosomal stability of compounds A and B, lysosomal enzymes were isolated from rat liver cells. Compounds A and B were each added to this lysosomal extract in order to examine stability under lysosomal conditions. The proteolytic enzyme legumain is expressed only in a very small amount, if any, in rat liver lysosomes (Chen, J-M. et al 1997). To monitor the enzymatic activity of the lysosomal enzymes, a cathepsin-specific substrate was added.
# First of all, a fresh rat liver was removed, weighed and immediately placed on ice in homogenization medium (0.25 M sucrose, 1 mM EDTA, 10 mM HEPES, pH7). The liver was comminuted and a change of medium was undertaken. The rat livers were homogenized with 4 times the amount of the rat liver weight at 750 rpm in a Potter (B. Braun). The homogenate was centrifuged at 1000 g for 10 min and the supernatant was filtered. In the next step, with the aid of an ultracentrifuge, the “light mitochondrial fraction” (LMF) was centrifuged out of the supernatant at 26 500 g over 20 min. […]
# The sucrose was added from a 2.3 M stock solution of the particular percentage. […] To monitor the lysis, the protein content of the lysed lysosomal fraction was monitored with the aid of a BCA assays (Pierce BCA protein assay kit). […] For the RP-HPLC LCMS analysis, the samples were diluted with 300 μl of 10 mM ammonium acetate buffer (pH 6.8) and analysed.
compound,measurement,value
"CNC(=O)[C@H](CCN(C(=O)CO)[C@@H](c1cc(-c2cc(F)ccc2F)cn1Cc1ccccc1)C(C)(C)C)NC(=O)[C@H](CC(N)=O)NC(=O)[C@@H](C)NC(=O)[C@H](C)NC(=O)Cc1ccncc1 [Example R3r-LDL, N-(Pyridin-4-ylacetyl)-L-alanyl-D-alanyl-N^1-[(2S)-4-[{(1R)-1-[1-benzyl-4-(2,5-difluorophenyl)-1H-pyrrol-2-yl]-2,2-dimethylpropyl}(glycoloyl)amino]-1-(methylamino)-1-oxobutan-2-yl]-L-aspartamide]",stability in rat liver lysosomal extract,stable
